In US20090297510A1, “INHIBITION OF CALPAIN REDUCES ALLERGIC INFLAMMATION” (priority 2008, published 2009):

What was measured:
Balb/c mice = experiment: FcεRI-mediated passive cutaneous anaphylaxis, Evans blue dye extravasation in ear; type: in vivo; conditions: 0.965 mg/mouse intraperitoneal, 1 h before DNP-BSA challenge i.v.; ears collected 30 min later; control DMSO; FIG. 2
Protocol: In particular, mice were injected locally in the ear tissue with anti-dinitrophenol (DNP) IgE (20 ng/mouse) a day before. Mice in the treatment group received 0.965 mg/mouse of calpain inhibitor III via intraperitoneal injection. Control group received diluent dimethyl sulfoxide (DMSO) only. One hour later, animals were injected with 100 μg of DNP-BSA in 200 μl 0.5% Evan blue dye via tail vein injection. Thirty minutes later, ear tissues were collected. Evan blue dyes were extracted and measure at 620 nm.
To examine the role of calpain in FcεRI-mediated passive cutaneous anaphylaxis in mice, dorsal sides of the ears of Balb/c mice were injected intradermally with 20 ng anti-DNP IgE (both left ears) in a 20 μl volume using a 30-gauge needle. After 24 h mice in the treatment group received 0.965 mg/mouse of calpain inhibitor III via intraperitoneal injection. Control group received diluent dimethyl sulfoxide (DMSO) only. […] For quantitation of Evans blue dye extravasation as a measure of anaphylaxis associated vascular hyperpermeability, 8-mm skin specimens were removed from the ears of mice, minced in 2 ml formamide, and incubated at 80° C. for 2 h in water bath to extract the dye. The absorbance of the extracted dye was read at 620 nm.

[1] = tested on: JNK phosphorylation in mast cells; experiment: Western blot of IgE-dependent kinase phosphorylation in mast cell lysates; type: cell-based, mouse; conditions: BMMC, inhibitor or DMSO 1 hour, then TNP-BSA 10 ng/ml for various times, FIG. 4
Protocol: In particular, mouse bone marrow-derived mast cells (60 million) were sensitized overnight with 90 ml fresh culture medium and 30 ml TIB141-conditioned medium enriched in IgE directed against trinitrophenyl (TNP). Cells were then washed twice with RPMI 1640 and resuspended in 10% FBS-RPMI 1640 at 1 million cells/ml. Five ml of cells were aliquoted for each treatment. Calpain inhibitor 3 (CI3) or DMSO was added and to the sample and incubated at 37° C. in a 5% CO2 incubator for 1 hour. Then, TNP-BSA (10 ng/ml) was added to stimulate mast cells for various times as indicated. After incubation, cells were transferred to a 50 ml tube, and centrifuged at 500×g for 5 min at 4° C. Supernatants were discarded and cell pellets were kept on ice. Cell pellets were lysed with 30 μl ice-cold RIPA lysis buffer for each condition. Lysates were transferred to 1.5 ml tubes, vortexed for 10 seconds at the highest setting, pipetted 20 times, vortexed for 10 seconds again, and incubated for 20 minutes on ice. Subsequently, lysates were centrifuged at 15,000×g for 10 minutes in a cold room. Supernatants were then transferred to new tubes and used for Western blotting with antibodies to phospho-IκB, total IκB, phospho-p38, total p38, phospho-JNK, total JNK, phospho-ERK, total ERK and actin. […]

For calpain inhibitor III, the “IgE-dependent passive cutaneous anaphylaxis (Evans blue dye extravasation, absorbance at 620 nm)” value (Balb/c mice) was “reduced IgE-dependent passive cutaneous anaphylaxis” and the “IgE-dependent JNK phosphorylation in mast cells” value [1] was “reduced IgE-dependent JNK phosphorylation in mast cells”.
